# Reference: patent publication EP1394219A1, “PH sensitive cyanine dyes as reactive fluorescent reagents” (CARNEGIE MELLON UNIVERSITY, priority 1999, dated 2000)
# Where two headings read alike, the source gives them in different places.
# Experiments:
# [1] = Fluorescence and UV absorbance properties of the dyes in phosphate buffers of different pH, pKa from emission intensity ratio I/Io; settings: for λmax pH 5.00 / λmaxpH 10.00: UV absorbance maximum; for λmax pH 5.00 / λmaxpH 10.00 / λEm(nm): phosphate buffer; for λmaxpH 10.00: pH 10.00; for λEm(nm): fluorescence emission maximum; for pKa: phosphate buffers, pH 5.85
# Method: (§1) The pKa was measured as the ratio of emission intensity at the pH measured and the emission intensity for maximum emission, or I/Io. […] The pKa can be calculated to be where I/Io = 0.5 or where the fluorescent probe is 50% protonated.
# [2] = phosphate buffer, pH 5.85
# Method: as §1
# [3] = cited from earlier work; for pKa: product literature value, may be different in a cellular environment
Structure (SMILES),λmax pH 5.00 [1] [nm],λmaxpH 10.00 [1] [nm],λEm(nm) [1] [nm],pKa [2],pKa [1],solubility in DMSO [3],pKa [3]
CC1(C)C(=CC=CC2=[N+](CCCCCC(=O)O)c3ccc(S(=O)(=O)[O-])cc3C2(C)C)Nc2ccc(S(=O)(=O)O)cc21 [Compound 3.39],550,476,565,7.75,–,–,–
CC1(C)C(=C/C=C/C=C/C2=[N+](CCCCS(=O)(=O)[O-])c3ccc(CC(=O)O)cc3C2(C)C)Nc2ccc(S(=O)(=O)O)cc21 [Compound 4],650,515,665,6.4,–,–,–
CC[N+]1=C(/C=C/C=C/C=C2Nc3ccc(CC(=O)O)cc3C2(C)C)C(C)(C)c2cc(S(=O)(=O)[O-])ccc21 [Compound 5],650,484,665,7.5,–,–,–
CC1(C)/C(=C\C=C\c2sc3ccccc3[n+]2CCCCS(=O)(=O)O)Nc2ccc(CC(=O)O)cc21 [Compound 6],552,433,580,–,9.8,–,–
CC1(C)\C(=C/C=C/C=C/c2sc3ccccc3[n+]2CCCCCC(=O)O)Nc2ccc(S(=O)(=O)O)cc21 [Compound 7],640,531,670,–,6.85,–,–
C[N+]1=C(/C=C/C=C/C=C2/Nc3ccc(S(=O)(=O)O)cc3C2(C)C)C(C)(C)c2cc(CN)ccc21 [Compound 8],650,531,665,–,7.25,–,–
CC1(C)C(/C=C/C=C/C=C2Nc3ccc4c(S(=O)(=O)O)cc(S(=O)(=O)O)cc4c3C2(C)C)=[N+](CCCCCC(=O)O)c2ccc(S(=O)(=O)[O-])cc21 [Compound 9],655,522,680,7.25,–,–,–
CC1(C)C(=C/C=C/C=C/C2=[N+](CCCCCC(=O)NN)c3ccc(S(=O)(=O)[O-])cc3C2(C)C)Nc2ccc(S(=O)(=O)O)cc21 [Compound 10],653,501,660,7.5,–,–,–
c1ccc2c(CN3CCOCC3)c3ccccc3c(CN3CCOCC3)c2c1 [LYSOSENSOR BLUE DND-167],–,–,–,–,–,soluble,5.1
CN(C)Cc1c2ccccc2c(CN(C)C)c2ccccc12 [LYSOSENSOR BLUE DND-192],–,–,–,–,–,soluble,7.5
CN(C)CCNc1ccc2c3c1cccc3c(=O)n1c3ccccc3nc21 [LYSOSENSOR GREEN DND-153],–,–,–,–,–,soluble,7.5
O=c1c2cccc3c(NCCN4CCOCC4)ccc(c32)c2nc3ccccc3n12 [LYSOSENSOR GREEN DND-189],–,–,–,–,–,soluble,5.2
